# Measured values from the NIST ThermoML archive (doi:10.1021/acs.jced.5b00988).
# Several values for one entry are separate records, joined by “and”; a condition that tells them apart may be missing. Equal values may be shown once. Numbers after ± are expanded uncertainties.
# Columns and labels:
# [1] = Crystal; visual observation
# [2] = wn = mass fraction of the nth substance listed; details: 298.15 K, 102.5 kPa, Liquid; for viscosity: Concentric cylinders viscometry; for mass density: Vibrating tube method
structure (smiles),measurement,setting,value
O=[PH2][O-].O=[PH2][O-].[Zn+2] [zinc(II) phosphinate],Triple point temperature,[1],446.15 ± 5 K
O=[PH2][O-].O=[PH2][O-].[Zn+2] [zinc(II) phosphinate] + O,viscosity,[2]; w2 = 0.5196,2.04 ± 0.04 mPa·s
same,mass density,[2]; w1 = 0.1861,1157 ± 2 kg/m3
O=[PH2][O-].[Na+] [sodium phosphinate] + O,viscosity,[2]; w1 = 0.5196,17.6 ± 0.38 mPa·s
same,mass density,[2]; w1 = 0.5196,1394 ± 3 kg/m3
[Cl-].[Na+] [sodium chloride] + O,viscosity,[2]; w1 = 0.2642,1.5 ± 0.03 mPa·s and 1.7 ± 0.04 mPa·s
same,mass density,[2]; w1 = 0.2642,1194 ± 2 kg/m3 and 1214 ± 2 kg/m3
